Broadly, the pIC50 is the IC50 on a negative log10 scale, so that one unit is a factor of ten. The melting point is the temperature of the solid-liquid transition.

Here are results for 53 compounds from patent US20080312435A1, “Imine Compound” (TAISHO PHARMACEUTICAL CO., LTD., priority 2004, published 2008).

For data set [1], the target named is T1, human CB2 receptor (Homo sapiens, UniProt P34972).
T1 construct: expressed in transfected cells
The data set can be described thus: Human CB2 receptor binding inhibition test ([3H]CP-55,940, CHO membrane fractions). Particulars: [3H]CP-55,940, membrane fractions of CHO cells stably expressing human CB2 receptor, 25° C., 2 hours; read-out: CB2 IC50 (Inhibition of binding to human CB2 receptor). The source says:
Human CB2 Receptor Binding Inhibition Test
First, cDNA sequence (Munro et al., Nature, 1993, 365, 61-65) encoding a human CB2 receptor was inserted in the forward direction in an animal-cell expression vector, pTARGET Vector (manufactured by Promega) at a region downstream of a CMV promoter. Host cells CHO-DHFR(−) were transfected with the obtained expression vector with the aid of Lipofectamine (manufactured by Invitrogen) to obtain cells capable of stably expressing the CB2 receptor.
After the filtrate was washed with an assay buffer containing 0.1% bovine serum albumin, the radioactivity on the glass filter was measured by a liquid scintillation counter. Nonspecific binding was measured in the presence of 2.0 μM CP-55,940 (manufactured by Tocris). 50% inhibitory concentration (IC50 value) of the test compound for the specific binding was obtained.

pIC50: −log10 of the molar value.

T1 sequence (P34972 whole entry): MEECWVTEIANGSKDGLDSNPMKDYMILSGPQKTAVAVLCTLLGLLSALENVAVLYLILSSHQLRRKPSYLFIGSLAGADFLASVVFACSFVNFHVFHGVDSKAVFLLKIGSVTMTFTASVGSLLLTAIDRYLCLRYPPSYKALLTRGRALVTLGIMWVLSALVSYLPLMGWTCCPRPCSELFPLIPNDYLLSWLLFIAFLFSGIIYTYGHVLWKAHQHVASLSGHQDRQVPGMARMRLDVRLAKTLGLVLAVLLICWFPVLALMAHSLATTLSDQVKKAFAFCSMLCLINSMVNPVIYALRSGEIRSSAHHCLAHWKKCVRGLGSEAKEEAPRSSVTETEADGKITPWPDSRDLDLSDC

`Cc1s/c(=N\C(=O)c2cccc(Cl)c2F)n(CC2CC2)c1C` [compound 79] returned a melting point of 109 to 111 °C. For the same compound, the pIC50 in data set [1] is 8.08.

In the case of `Cc1s/c(=N\C(=O)c2cc(F)ccc2Cl)n(CC2CC2)c1C` [compound 80], the melting point lay in the range of 139 to 140 °C. Besides, the negative-log IC50 (pIC50) in data set [1] is 7.75.

Compound `Cc1s/c(=N\C(=O)c2cc(F)c(F)cc2Cl)n(CC2CC2)c1C` [compound 85] yielded a melting point of 161 to 163 °C. In data set [1], the negative logarithm of the IC50 (pIC50) is 7.72.

Turning to `Cc1s/c(=N\C(=O)c2cc(F)c(Cl)cc2Cl)n(CC2CC2)c1C` [compound 86], the melting point fell in the range of 59 to 60 °C. Moreover, the pIC50 in data set [1] is 8.19.

`COc1ccc(OC)c(C(=O)/N=c2\sc(C)c(C)n2CC2CC2)c1` [compound 88] showed a melting point of 124 to 126 °C. In addition, the pIC50 in data set [1] was 7.75.

`Cc1ccc(F)cc1C(=O)/N=c1\sc(C)c(C)n1CC1CC1` [compound 89] yielded a melting point of 82 to 84 °C. In data set [1], the negative logarithm of the IC50 (pIC50) was 8.01.

As for `Cc1cc(Cl)ccc1C(=O)/N=c1\sc(C)c(C)n1CC1CC1` [compound 90], the melting point lay in the range of 124 to 125 °C. For the same compound, the pIC50 in data set [1] was 8.19.

In turn, `Cc1ccc(C(=O)/N=c2\sc(C)c(C)n2CC2CC2)c(Br)c1` [compound 91] showed a melting point of 90 to 92 °C. Besides, in data set [1], the pIC50 was 8.10.

`Cc1s/c(=N\C(=O)c2cc(C(F)(F)F)ccc2F)n(CC2CC2)c1C` [compound 92] registered a melting point of 122 to 123 °C. The pIC50 in data set [1] is 8.41.

`Cc1s/c(=N\C(=O)c2cc(F)ccc2C(F)(F)F)n(CC2CC2)c1C` [compound 93] gave a melting point of 131 to 133 °C. Moreover, in data set [1], the pIC50 is 7.75.

In the case of `Cc1s/c(=N\C(=O)c2c(F)cccc2C(F)(F)F)n(CC2CC2)c1C` [compound 94], the melting point was 111 to 113 °C. Moreover, the pIC50 in data set [1] is 8.54.

With `COc1ccc(F)cc1C(=O)/N=c1\sc(C)c(C)n1CC1CC1` [compound 96], the melting point lay in the range of 107 to 109 °C. In addition, the pIC50 in data set [1] is 8.11.

Take `COc1ccc(Cl)cc1C(=O)/N=c1\sc(C)c(C)n1CC1CC1` [compound 97]: the melting point was 121 to 123 °C. Also, the pIC50 in data set [1] was 8.48.

Compound `Cc1s/c(=N\C(=O)CC2CCCC2)n(CC2CC2)c1C` [compound 100] registered a melting point of 108 to 109 °C. Moreover, the negative logarithm of the IC50 (pIC50) in data set [1] was 8.15.

Turning to `COCCCn1c(C)c(C)s/c1=N\C(=O)c1cccc(C(F)(F)F)c1F` [compound 105], the melting point was in the range of 104 to 106 °C. Also, in data set [1], the negative-log IC50 (pIC50) is 8.77.

`CCc1s/c(=N\C(=O)c2cccc(C(F)(F)F)c2F)n(CC2CC2)c1C` [compound 109]: the melting point was 164 to 166 °C. In addition, the pIC50 in data set [1] was 8.89.

In the case of `Cc1c(C(C)C)s/c(=N\C(=O)c2cccc(C(F)(F)F)c2F)n1CC1CC1` [compound 113], the melting point fell in the range of 64 to 66 °C. Further, in data set [1], the pIC50 was 8.96.

Take `COCCn1c(C)c(C(C)C)s/c1=N\C(=O)c1cccc(C(F)(F)F)c1F` [compound 114]: the melting point lay within 132 to 134 °C. The pIC50 in data set [1] is 8.80.

In turn, `Cc1c(C(C)(C)C)s/c(=N\C(=O)c2ccccc2C(F)(F)F)n1C` [compound 117] gave a melting point of 74 to 76 °C. The pIC50 in data set [1] is 8.25.

Turning to `Cc1c(C(C)(C)C)s/c(=N\C(=O)c2ccccc2Cl)n1C` [compound 119], the melting point was 119 to 121 °C. Moreover, the pIC50 in data set [1] was 7.73.

The compound `Cc1c(C(C)(C)C)s/c(=N\C(=O)c2ccccc2Br)n1C` [compound 120] gave a melting point of 182 to 184 °C. The negative logarithm of the IC50 (pIC50) in data set [1] is 8.13.

`Cc1c(C(C)(C)C)s/c(=N\C(=O)c2ccccc2I)n1C` [compound 122] showed a melting point of 83 to 85 °C. In addition, the pIC50 in data set [1] was 8.05.

`Cc1c(C(C)(C)C)s/c(=N\C(=O)c2cccc(Cl)c2F)n1C` [compound 129] yielded a melting point of 203 to 205 °C. Besides, in data set [1], the pIC50 is 8.15.

For `Cc1c(C(C)(C)C)s/c(=N\C(=O)c2cc(F)ccc2Cl)n1C` [compound 130], the melting point lay in the range of 125 to 126 °C. For the same compound, in data set [1], the pIC50 was 8.07.

As for `Cc1c(C(C)(C)C)s/c(=N\C(=O)c2cc(F)ccc2Br)n1C` [compound 131], the melting point was 161 to 162 °C. For the same compound, the negative-log IC50 (pIC50) in data set [1] is 8.25.

`Cc1c(C(C)(C)C)s/c(=N\C(=O)c2cc(Br)ccc2F)n1C` [compound 132] showed a melting point of 144 to 145 °C. Further, the pIC50 in data set [1] is 7.80.

`Cc1c(C(C)(C)C)s/c(=N\C(=O)c2cc(Cl)ccc2Cl)n1C` [compound 133]: the melting point lay within 171 to 173 °C. Besides, the negative logarithm of the IC50 (pIC50) in data set [1] was 8.14.

In turn, `Cc1c(C(C)(C)C)s/c(=N\C(=O)c2c(F)ccc(F)c2F)n1C` [compound 134] gave a melting point of 143 to 145 °C. Moreover, the pIC50 in data set [1] was 8.17.

In the case of `Cc1c(C(C)(C)C)s/c(=N\C(=O)c2cc(F)c(F)cc2Cl)n1C` [compound 135], the melting point was 145 to 146 °C. The pIC50 in data set [1] was 7.92.

`Cc1c(C(C)(C)C)s/c(=N\C(=O)c2cc(F)c(Cl)cc2Cl)n1C` [compound 136] displayed a melting point of 205 to 207 °C. Further, the pIC50 in data set [1] is 7.94.

As to `Cc1ccc(F)cc1C(=O)/N=c1\sc(C(C)(C)C)c(C)n1C` [compound 138], the melting point fell in the range of 145 to 146 °C. Also, the pIC50 in data set [1] was 7.92.

The compound `Cc1c(Cl)cccc1C(=O)/N=c1\sc(C(C)(C)C)c(C)n1C` [compound 139] returned a melting point of 161 to 162 °C. In data set [1], the negative-log IC50 (pIC50) was 8.13.

Turning to `Cc1c(Br)cccc1C(=O)/N=c1\sc(C(C)(C)C)c(C)n1C` [compound 140], the melting point was in the range of 143 to 144 °C. In addition, the pIC50 in data set [1] is 8.21.

In turn, `Cc1c(C(C)(C)C)s/c(=N\C(=O)c2cccc(C(F)(F)F)c2F)n1C` [compound 141] registered a melting point of 176 to 178 °C. The pIC50 in data set [1] was 7.86.

Regarding `Cc1c(C(C)(C)C)s/c(=N\C(=O)c2cc(F)ccc2C(F)(F)F)n1C` [compound 143], the melting point lay within 83 to 85 °C. Moreover, the pIC50 in data set [1] is 8.13.

Compound `Cc1ccc(F)c(C(=O)/N=c2\sc(C(C)(C)C)c(C)n2C)c1F` [compound 144] yielded a melting point of 140 to 142 °C. Moreover, in data set [1], the pIC50 was 8.37.

Turning to `COc1ccc(Cl)cc1C(=O)/N=c1\sc(C(C)(C)C)c(C)n1C` [compound 146], the melting point was 177 to 179 °C. Moreover, the negative logarithm of the IC50 (pIC50) in data set [1] is 8.18.

Consider `COc1cc(Cl)ccc1C(=O)/N=c1\sc(C(C)(C)C)c(C)n1C` [compound 147], for which the melting point was 117 to 119 °C. In addition, in data set [1], the pIC50 was 8.02.

As for `Cc1c(C(C)(C)C)s/c(=N\C(=O)C(F)(F)C(F)(F)C(F)(F)F)n1C` [compound 149], the melting point is 180 to 182 °C. In addition, the pIC50 in data set [1] was 7.91.

`CCn1c(C)c(C(C)(C)C)s/c1=N\C(=O)c1ccccc1C(F)(F)F` [compound 151] gave a melting point of 74 to 76 °C. The pIC50 in data set [1] was 8.49.

Compound `CCn1c(C)c(C(C)(C)C)s/c1=N\C(=O)c1ccccc1OC(F)(F)F` [compound 153] registered a melting point of 104 to 105 °C. Also, the pIC50 in data set [1] is 7.75.

`CCn1c(C)c(C(C)(C)C)s/c1=N\C(=O)c1cc(Br)ccc1F` [compound 154] returned a melting point of 105 to 106 °C. In data set [1], the pIC50 is 8.23.

For the compound `CCn1c(C)c(C(C)(C)C)s/c1=N\C(=O)c1cc(F)ccc1Br` [compound 155], the melting point was 115 to 116 °C. Also, the pIC50 in data set [1] was 8.37.

The compound `CCn1c(C)c(C(C)(C)C)s/c1=N\C(=O)c1ccc(F)cc1Br` [compound 156] returned a melting point of 99 to 100 °C. The pIC50 in data set [1] is 7.94.

Compound `CCn1c(C)c(C(C)(C)C)s/c1=N\C(=O)c1cc(I)ccc1F` [compound 157] displayed a melting point of 87 to 89 °C. Besides, in data set [1], the pIC50 was 7.92.

For the compound `CCn1c(C)c(C(C)(C)C)s/c1=N\C(=O)c1cc(Cl)ccc1Cl` [compound 158], the melting point lay in the range of 127 to 128 °C. In data set [1], the negative logarithm of the IC50 (pIC50) is 8.15.

`CCn1c(C)c(C(C)(C)C)s/c1=N\C(=O)c1cc(F)c(F)cc1Cl` [compound 159]: the melting point is 107 to 108 °C. Besides, the pIC50 in data set [1] is 8.08.

Compound `CCn1c(C)c(C(C)(C)C)s/c1=N\C(=O)c1cc(F)c(Cl)cc1Cl` [compound 160] had a melting point of 112 to 114 °C. Further, the pIC50 in data set [1] was 8.07.

In turn, `CCn1c(C)c(C(C)(C)C)s/c1=N\C(=O)c1cc(F)ccc1C` [compound 161] returned a melting point of 108 to 109 °C. The pIC50 in data set [1] was 8.01.

Compound `CCn1c(C)c(C(C)(C)C)s/c1=N\C(=O)c1ccc(Cl)cc1C` [compound 162] displayed a melting point of 125 to 126 °C. The pIC50 in data set [1] is 7.92.

Turning to `CCn1c(C)c(C(C)(C)C)s/c1=N\C(=O)c1ccc(C)cc1Br` [compound 163], the melting point fell in the range of 100 to 102 °C. Further, the pIC50 in data set [1] is 7.83.

Compound `CCn1c(C)c(C(C)(C)C)s/c1=N\C(=O)c1cc(F)ccc1C(F)(F)F` [compound 164] came in with a melting point of 103 to 104 °C. Moreover, the pIC50 in data set [1] is 8.39.

Take `CCn1c(C)c(C(C)(C)C)s/c1=N\C(=O)c1cccc(C(F)(F)F)c1F` [compound 165]: the melting point was in the range of 97 to 99 °C. Also, the pIC50 in data set [1] was 8.37.
